Laboratory results reported in patent US20040259925A1, “Pharmaceutical compositions and methds for the prevention or treatment of cardiovascular, cardiopulmonary, pulmonary or renal diseases” (Boehringer Ingelheim Pharma GmbH & Co. KG, priority 2003, published 2004).

How the values were obtained:
[1] = Dissolution of active substances from Tablet 3; format: physicochemical
Text: This combination of active substances and excipients was then compressed with a suitable tablet press (e.g. Korsch EK0 or Fette P1200) to form tablets.

[2] = target: T1, ligand binding domain of the human PPARgamma2 transcription factor fused to yeast GAL4 DNA binding domain (Homo sapiens, UniProt P37231); experiment: Luciferase activity in stably transformed PPARgamma reporter cell line (CHO-K1 clone 11); format: cell-based; details: for MW (luciferase activity): 24 hours
T1 construct: codes for amino acids 205-505 of the human PPARgamma2 transcription factor; expressed in transfected cells
T1 sequence (P37231 205-505): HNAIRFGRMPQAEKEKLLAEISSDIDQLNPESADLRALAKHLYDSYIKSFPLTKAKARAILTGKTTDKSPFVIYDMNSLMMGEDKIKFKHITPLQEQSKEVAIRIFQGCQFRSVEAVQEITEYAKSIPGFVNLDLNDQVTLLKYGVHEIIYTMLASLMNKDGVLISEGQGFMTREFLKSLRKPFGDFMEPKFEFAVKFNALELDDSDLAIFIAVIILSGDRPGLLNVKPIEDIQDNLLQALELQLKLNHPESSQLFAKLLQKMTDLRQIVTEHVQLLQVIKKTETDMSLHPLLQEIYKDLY
Text: The cells used are CHO cells which are the result of transformation with two gene constructs.
The resulting plasmid pFA-CMV/hPPARgamma2-LBD codes N-terminally of the PPARgamma-LBD in the same reading frame for a Gal4 DNA binding domain. In addition the plasmid codes for neomycin resistance.
The cell line CHO-K1 (ATCC CCL-61) was cotransfected with the plasmids pFA-CMV/hPPARgamma2-LBD and pFR-Luc (Stratagene). pFR-Luc codes for the luciferase gene under the control of a five-times repeated yeast Gal4 binding site. The transfection was carried out with lipofectamine2000 in accordance with the manufacturer's instructions.
After six days' cultivation the cells were passaged and kept in culture for another 10 days. The resulting neomycin-resistant colonies were picked out under the microscope and transferred into 96 well dishes and cultured.
The test substances were brought to 100 times the desired concentration with a suitable solvent, e.g. DMSO, and diluted 1:100 with the medium placed in the cell culture plate. The solvent used, e.g. DMSO, was used as the background control in the same concentration.
Luminescence was measured after a five minute wait using a Packard TopCount NXT. The luciferase activity was obtained by integrating the relative luciferase units (RLU) of the first ten seconds after the start of measurement.

[3] = target: T2, human PPARgamma-ligand binding domain (LBD) (Homo sapiens, UniProt P37231); experiment: AlphaScreen: recruiting of biotinylated LXXLL peptide of cofactor CBP by GST-PPARgamma-LBD; format: biochemical; details: for direct activation of the PPARgamma-LBD / recruiting of the LXXLL peptide: concentrations of up to 50 μM; for MW (AlphaScreen signal): 4 hours
T2 construct: codes for the amino acids 205-505 of the human PPARgamma2 transcription factor; made in house; host or cells: E. coli BL21(DE3), vector pGEX-4T-1
T2 sequence (P37231 205-505): T1 sequence (P37231 205-505)
Protocol: Protein containing the human PPARgamma-ligand binding domain (LBD) was prepared as a GST fusion protein in E. coli and purified by affinity chromatography. […] The fusion protein was expressed in the E. coli strain BL21(DE3) recommended for pGEX vectors after induction with 0.2 mM IPTG for 4 hours at 25° C. The bacteria were pelleted after the induction and frozen in batches in PBS, pH 7.4. After opening up in a French Press, the dissolved GST-PPARgamma-LBD-fusion protein was purified using a GSTrap column (Pharmacia). Elution was carried out by the addition of 20 mM reduced glutathione. The GST-PPARgamma-LBD-protein fractions were desalinated using a HiTrap desalting column (Pharmacia) and the protein concentration was determined using a standard assay.
The assay buffer consisted of 25mM Hepes pH7.4, 100 mM NaCl, 1 mM DTT, 0.1% Tween-20, 0.1% BSA. […] The final DMSO concentration in the assay was 1% (v/v). A 1% DMSO solution was used as the background control (NSB). The measurement was done using a Packard fusion measuring device.

[4] = target: T3, human PPARgamma-ligand binding domain (LBD) (Homo sapiens, UniProt P37231); experiment: SPA assay: displacement of 3H-labelled rosiglitazone from GST-PPARgamma-LBD; details: for MW (SPA signal, bound 3H-rosiglitazone): 30 nM 3H-rosiglitazone, NSB 217, Bmax 911; for displacement of the radioactive rosiglitazone from the binding pocket: very large excesses of test substance
T3 sequence (P37231 205-505): T1 sequence (P37231 205-505)
T3 sequence (P19793 220-461 partner): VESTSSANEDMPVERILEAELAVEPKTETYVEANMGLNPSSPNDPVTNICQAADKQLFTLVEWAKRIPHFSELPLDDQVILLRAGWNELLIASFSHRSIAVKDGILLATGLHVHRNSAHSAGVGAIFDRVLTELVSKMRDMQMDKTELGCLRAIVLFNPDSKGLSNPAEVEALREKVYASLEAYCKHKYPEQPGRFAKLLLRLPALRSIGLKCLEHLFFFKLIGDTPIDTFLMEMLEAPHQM
Protocol: Protein containing the human PPARgamma-ligand binding domain (LBD) was prepared as a GST fusion protein in E. coli and purified by affinity chromatography. To do this, a DNA section which codes for the amino acids 205-505 of the human PPARgamma2 transcription factor (cf. Genbank entry U79012) was subcloned via the additionally inserted restriction cutting sites BamH I and Xho I into the expression vector pGEX-4T-1 (Amersham) and the sequence of the section was monitored. […] The bacteria were pelleted after the induction and frozen in batches in PBS, pH 7.4. After opening up in a French Press, the dissolved GST-PPARgamma-LBD-fusion protein was purified using a GSTrap column (Pharmacia). Elution was carried out by the addition of 20 mM reduced glutathione. The GST-PPARgamma-LBD-protein fractions were desalinated using a HiTrap desalting column (Pharmacia) and the protein concentration was determined using a standard assay. Protein containing the human RXRalpha ligand binding domain (LBD) was prepared as a His tag fusion protein in E. coli and purified by affinity chromatography. To do this a DNA section which codes for the amino acids 220-461 of the human RXRalpha transcription factor (cf. Genbank entry NM_002957, nt 729-1457) was subcloned via the additionally introduced restriction cutting sites BamH I and Not I into the expression vector pET28c (Novagen) and the sequence of the section was monitored. […] The bacteria were pelleted after the expression and frozen in batches in PBS, pH 7.4. After opening up in a French Press, the dissolved His-RXRalpha-LBD-fusion protein is purified using a HiTrap chelating column (Pharmacia). Elution was carried out using a 500 mM imidazole step. The His-RXRalpha-LBD protein fractions were desalinated using a HiTrap desalting column (Pharmacia) and the protein concentration was determined using a standard assay. A description of the SPA assay format can be found in Mukherjee R et al., J Steroid Biochem Mol Biol (2002) 81:217-225. The assay buffer consisted of 20 mM Tris pH 7.5, 25 mM KCl, 10 mM DTT, 0.2% Triton X-100).

Row | SMILES | activation of the PPARgamma pathway in the PPARgamma reporter cell line [2] | MW (luciferase activity) ([2]; test substance 1.00E−04 M) | MW (luciferase activity) ([2]; test substance 1.00E−05 M) | MW (luciferase activity) ([2]; test substance 1.00E−06 M) | MW (luciferase activity) ([2]; test substance 3.00E−05 M) | MW (luciferase activity) ([2]; test substance 3.00E−06 M) | MW (luciferase activity) ([2]; test substance 3.00E−07 M) | direct activation of the PPARgamma-LBD / recruiting of the LXXLL peptide [3] | MW (SPA signal, bound 3H-rosiglitazone) ([4]; test substance 1.00E−04 M) | MW (SPA signal, bound 3H-rosiglitazone) ([4]; test substance 1.00E−05 M) | MW (SPA signal, bound 3H-rosiglitazone) ([4]; test substance 1.00E−06 M) | MW (SPA signal, bound 3H-rosiglitazone) ([4]; test substance 1.00E−07 M) | MW (SPA signal, bound 3H-rosiglitazone) ([4]; test substance 3.00E−05 M) | MW (SPA signal, bound 3H-rosiglitazone) ([4]; test substance 3.00E−06 M) | MW (SPA signal, bound 3H-rosiglitazone) ([4]; test substance 3.00E−07 M) | displacement of the radioactive rosiglitazone from the binding pocket [4] | further results
1 | CCCc1nc2c(C)cc(-c3nc4ccccc4n3C)cc2n1Cc1ccc(-c2ccccc2C(=O)[O-])cc1.[Na+] [telmisartan sodium salt] |  |  |  |  |  |  |  |  |  |  |  |  |  |  |  |  | dissolved after 30 minutes ([1]; Tablet 3, first batch, 900 ml 0.1 M phosphate buffer pH 7.5, 75 rpm): 92±1.5%; dissolved after 30 minutes ([1]; Tablet 3, second batch, 900 ml 0.1 M phosphate buffer pH 7.5, 75 rpm): 96±1.8%; dissolved after 30 minutes ([1]; Tablet 3, third batch, 900 ml 0.1 M phosphate buffer pH 7.5, 75 rpm): 100±1.0%
2 | CCCCC1=NC2(CCCC2)C(=O)N1Cc1ccc(-c2ccccc2-c2nnn[nH]2)cc1 [irbesartan] | only at higher test concentrations and to a lesser extent | 29600 RLU | 3292 RLU | 657 RLU | 22133 RLU | 1028 RLU | 491 RLU | did not result in any direct activation of the PPARgamma-LBD | 510 | 723 | 815 | 913 | 648 | 779 | 810 | no concentration-dependent displacement | 
3 | CCCCc1nc(Cl)c(CO)n1Cc1ccc(-c2ccccc2-c2nn[nH]n2)cc1 [losartan] | only at higher test concentrations and to a lesser extent | 11322 RLU | 709 RLU | 589 RLU | 3271 RLU | 672 RLU | 874 RLU | did not result in any direct activation of the PPARgamma-LBD | 611 | 787 | 901 | 915 | 784 | 814 | 835 | no concentration-dependent displacement | 
4 | CCCc1nc2c(C)cc(-c3nc4ccccc4n3C)cc2n1Cc1ccc(-c2ccccc2C(=O)O)cc1 [telmisartan, 4′-[2-n-propyl-4-methyl-6-(1-methylbenzimidazol-2-yl)-benzimidazol-1-ylmethyl]-biphenyl-2-carboxylic acid] | particularly potent activation |  | 61397 RLU | 2859 RLU | 58790 RLU | 24498 RLU | 760 RLU | did not result in any direct activation of the PPARgamma-LBD | 545 | 703 | 818 | 837 | 691 | 818 | 802 | no concentration-dependent displacement | MW (AlphaScreen signal) ([3]; test substance 1.00E−05 M): 847; MW (AlphaScreen signal) ([3]; test substance 1.00E−06 M): 677; MW (AlphaScreen signal) ([3]; test substance 1.00E−07 M): 606; MW (AlphaScreen signal) ([3]; test substance 3.00E−06 M): 720; MW (AlphaScreen signal) ([3]; test substance 3.00E−07 M): 644; MW (AlphaScreen signal) ([3]; test substance 3.00E−08 M): 642; MW (AlphaScreen signal) ([3]; test substance 5.00E−05 M): 1111
5 | NS(=O)(=O)c1cc2c(cc1Cl)NCNS2(=O)=O [hydrochlorothiazide] |  |  |  |  |  |  |  |  |  |  |  |  |  |  |  |  | dissolved after 30 minutes ([1]; Tablet 3, first batch, 900 ml 0.1 M HCl, 100 rpm): 69±6.3%; dissolved after 30 minutes ([1]; Tablet 3, second batch, 900 ml 0.1 M HCl, 100 rpm): 72±2.1%; dissolved after 30 minutes ([1]; Tablet 3, third batch, 900 ml 0.1 M HCl, 100 rpm): 78±1.8%
